SMILES strings stand for the structures. “Also recorded” adds a separate entry of the source. Peptide text beside a SMILES is read from it. * marks the point of attachment. Cbz = O=C(OCc1ccccc1)*

Type in all cases: cell-based, human
The subject of data set [1] is PMA-induced APOBEC3B upregulation. Briefly: Inhibitor pretreatment before PMA induction of APOBEC3B in MCF10A cells, RT-qPCR. The procedure:
PMA is a well-known agonist of PKC, but it also affects other cellular processes. To determine whether APOBEC3B induction by PMA occurs through PKC signal transduction or an alternative mechanism, a panel of existing PKC inhibitors that vary with respect to class selectivity were analyzed. MCF10A cells were pre-treated for 30 minutes with varying concentrations of the pan-PKC inhibitor G66983 (Gschwendt et al., FEBS Lett. 392(2):77-80, 1996) and then treated for six hours with PMA (25 ng/mL). […] As additional controls, MCF10A cells were pretreated in parallel with the phosphoinositol 3 kinase (PI3K) inhibitor, LY294002, and the mitogen-activated protein kinase kinase (MEK) inhibitor, U0126, prior to PMA induction (FIGS. 2B and 2C).
(§1) For induction experiments, 2.5×10^5 cells were plated in a 6-well plate 1 day prior to drug treatment. PMA was then added to the media and incubated at 37° C. with 5% CO2 for six hours unless otherwise indicated. Cells were harvested, RNA was extracted, and RT-qPCR was performed as previously reported (Refsland et al. 2010, Nucleic Acids Res 38:4274-4284). For experiments utilizing inhibitors, cells were pretreated with inhibitors 30 minutes prior to PMA induction (25 ng/mL). PMA (Thermo Fisher Scientific, Inc., Waltham, Mass.), cyclohexamide (Acros Organics, Thermo Fisher Scientific, Inc., Waltham, Mass.), G66983 (Cayman Chemical co., Ann Arbor, Mich.), LY294002 (EMD Chemicals, Merck KGaA, Darmstadt, Germany), U0126 (EMD Chemicals, Merck KGaA, Darmstadt, Germany), AEB071 (Medchemexpress, Monmouth Junction, N.J.), Go6976 (Enzo Life Sciences, Inc., Farmingdale, N.Y.), BAY 11-7082 (R&D Systems, INc., Minneapolis, Minn.), and MG132 (Thermo Fisher Scientific, Inc., Waltham, Mass.) were stored as recommended. NIKi/Compound 31 was synthesized as described (Li et al., 2013, Bioorganic & Medicinal Chemistry Letters 23:1238-1244).
(Quantitative PCR measures a nucleic acid by following its amplification.)

The subject of a further data set is MCF10A cells. Briefly: Morphology and viability of inhibitor-treated MCF10A cells. The conditions noted are these: low concentrations used (5 μM and around), data not shown. The procedure: PMA is a well-known agonist of PKC, but it also affects other cellular processes. To determine whether APOBEC3B induction by PMA occurs through PKC signal transduction or an alternative mechanism, a panel of existing PKC inhibitors that vary with respect to class selectivity were analyzed. MCF10A cells were pre-treated for 30 minutes with varying concentrations of the pan-PKC inhibitor G66983 (Gschwendt et al., FEBS Lett. 392(2):77-80, 1996) and then treated for six hours with PMA (25 ng/mL). […] APOBEC3B was suppressed to background levels with 5 μM G66983, as well as higher concentrations (FIG. 2A). […] As additional controls, MCF10A cells were pretreated in parallel with the phosphoinositol 3 kinase (PI3K) inhibitor, LY294002, and the mitogen-activated protein kinase kinase (MEK) inhibitor, U0126, prior to PMA induction (FIGS. 2B and 2C).

Data set [2] relates to RELA, NFKB1, RELB and NFKB2. Briefly: RNA sequencing of PMA-treated MCF10A cells, NFκB components. The conditions noted are these: RNAseq. The procedure:
(§2) Two sets of MCF10A cells in duplicate were treated every eight hours with media supplemented with PMA or DMSO for 48 hours. At 48 hours, RNA was extracted using an RNeasy Mini Kit (Qiagen, Hilden, Germany). Total RNA was submitted to the University of Minnesota Genomics Center for sequencing on the Illumina HiSeq 2000 platform. Raw reads were analyzed using both DESeq2 (Love et al., 2014, Genome Biol. 15:550) and the Tuxedo suite (Trapnell et al., 2012, Nat Protoc. 7:562-578) to identify changes in mRNA expression in PMA treated versus untreated cells.

A further data set has as its system APOBEC3B promoter region. Briefly: Chromatin immunoprecipitation after PMA treatment of MCF10A cells. Conditions: PMA for two hours, ChIP-qPCR. The procedure:
Next, a series of chromatin immunoprecipitation (ChIP) experiments were performed to determine whether the canonical or noncanonical NFκB pathway is responsible for upregulating APOBEC3B. Primer sets were designed for each of the predicted NFκB binding sites near the APOBEC3B transcriptional start site, as well as a control set in the promoter region of NFKBIA (FIG. 3E). ChIP was performed for RELA, RELB, RNA POL II (positive control), and isotype matched IgG (negative control). RELA, RELB, and RNA POL II were all bound to the NFKBIA promoter following PMA treatment (FIG. 3F). In addition, RNA POL II strongly bound to the APOBEC3B gene near the transcriptional start site (FIG. 3F). Also, RELB bound both near the transcriptional start site and at sites 4 and 5, which are located in intron 2 and too close together to be distinguished by this procedure. Binding also may occur at lower levels at site 3 in intron 1, but the IgG signal was too high to distinguish background from actual binding. These ChIP data strongly implicate the noncanonical NFκB pathway, specifically RELB (and not RELA), in directly inducing APOBEC3B transcription in response to PMA activation of PKC.
MCF10A cells were treated with either DMSO or 25 ng/mL PMA for two hours. Cross-linking was performed with 1% formaldehyde for 10 minutes at room temperature and quenched with 150 mM glycine. […]

A further data set relates to APOBEC family members. Put plainly: mRNA levels of the other APOBEC family members after PMA treatment, RT-qPCR. The conditions noted are these: MCF10A cells. The protocol:
(§3) A panel of immortalized normal human epithelial cells lines and breast cancer cell lines was treated with the model PKC-NFκB pathway activator PMA (or equal amounts of DMSO as a negative control) and previously validated reverse transcription quantitative PCR (RT-qPCR) assays were used to measure mRNA levels of all eleven human APOBEC family members. APOBEC3B mRNA was induced specifically by PMA treatment of several lines including the immortalized normal breast epithelial cell line MCF10A (FIG. 6). Under standard cell culture conditions, MCF10A expresses low levels of APOBEC3B and APOBEC3F, even lower levels of APOBEC3G and APOBEC3H, high levels of APOBEC3C, and undetectable levels of all other APOBEC family members.
For induction experiments, 2.5×10^5 cells were plated in a 6-well plate 1 day prior to drug treatment. PMA was then added to the media and incubated at 37° C. with 5% CO2 for six hours unless otherwise indicated. Cells were harvested, RNA was extracted, and RT-qPCR was performed as previously reported (Refsland et al. 2010, Nucleic Acids Res 38:4274-4284). For experiments utilizing inhibitors, cells were pretreated with inhibitors 30 minutes prior to PMA induction (25 ng/mL). […]

A further data set has as its system PKCα (PRKCA). Briefly: RNA sequencing of PMA-treated MCF10A cells, PKC isoforms. The conditions noted are these: RNAseq, in comparison to DMSO. The procedure: as §2
Data set [3] deals with APOBEC3B. Put plainly: PMA induction of APOBEC3B mRNA in MCF10A cells, RT-qPCR. The protocol:
as §3, §1

In the next data set the test system is cancer cell lines. Put plainly: Cell cycle and viability of AEB071-treated cancer cell lines. The conditions noted are these: 10 μM, 48 hours, data not shown. The protocol: (§4) Each line was treated for 48 hours with 10 μM AEB071, and then APOBEC3B mRNA and protein levels were quantified by RT-qPCR and immunoblotting. As above, no effects on the cell cycle or cell viability were observed (data not shown). This is important since higher concentrations of AEB071 are known to cause cell cycle perturbations and apoptosis in certain cell types. APOBEC3B mRNA levels were reduced by more than half in 7/16 cell lines, including the breast cancer cell lines MDA-MB-468, MDA-MB-453, and HCC1806, the ovarian cancer cell line OVCAR5, and the head/neck lines SQ-20B, JSQ3, and TR146 (FIG. 4B, histogram). Changes of protein levels largely mirrored the mRNA results (FIG. 4B, immunoblot).

For data set [4], the system named is APOBEC3B. Briefly: Endogenous APOBEC3B expression in cancer cell lines treated with PKC inhibitor. The conditions noted are these: 10 μM, 48 hours; breast, ovarian, bladder and head/neck cancer cell lines. The protocol: Four breast cancer cell lines, four ovarian cancer cell lines, four bladder cancer cell lines, and four head/neck cancer cell lines were analyzed to determine whether the constitutively high levels of endogenous APOBEC3B observed in many human cancer cell lines occurs through the PKC pathway. The selected cell lines expressed a 10-fold range of endogenous APOBEC3B mRNA levels (FIG. 4A).
as §4

Where [5] appears, read: 30-minute pretreatment, then PMA 25 ng/mL for six hours.

As to `CN(C)CCCn1cc(C2=C(c3c[nH]c4ccccc34)C(=O)NC2=O)c2ccccc21` [BIM-1], the “effect on PMA-induced APOBEC3B induction” value in data set [1] (setting [5]) is given as “inhibited”.
As for `NC(=O)Nc1sc(-c2ccc(F)cc2)cc1C(N)=O` [TPCA-1], the “effect on PMA-induced APOBEC3B induction” value in [1] (setting [5]) is “near the IC50 for IKKα, not IKKβ”.
The same measure, in the same setting: with `Cc1ccc(S(=O)(=O)/C=C/C#N)cc1` [BAY 11-7082] the entry was “dose responsive inhibition; also recorded: strong dose-responsive drops”.
For the compound `COc1ccc2c(c1)c(C1=C(c3c[nH]c4ccccc34)C(=O)NC1=O)cn2CCCN(C)C` [G66983], in data set [1] (setting [5]), the “concentration at which APOBEC3B was suppressed to background levels” value came out at 5 µM and the “effect on PMA-induced APOBEC3B induction” value was “dose responsive suppression”. In [1] (30-minute pretreatment, then PMA 25 ng/mL for six hours, listed as Go6983), the “effect on PMA-induced APOBEC3B induction” value is listed as “inhibited”. Further, the “morphological defects or viability issues” value with MCF10A cells is given as “No morphological defects or viability issues”.
Turning to `CC(C)C[C@@H](C=O)NC(=O)[C@H](CC(C)C)NC(=O)[C@H](CC(C)C)NC(=O)OCc1ccccc1` [MG132] (Cbz-Leu-Leu-Leu-aldehyde), the “effect on PMA-induced APOBEC3B induction” value in data set [1] (setting [5]) was “dose responsive inhibition; also recorded: decreased in a dose dependent manner”.
Turning to `CCCCCCCCCCCCCC(=O)O[C@@H]1[C@@H](C)[C@@]2(O)[C@@H](C=C(CO)C[C@]3(O)C(=O)C(C)=C[C@@H]23)[C@@H]2C(C)(C)[C@]12OC(C)=O` [PMA, phorbol 12-myristate 13-acetate], the “expression levels of canonical and noncanonical NFκB components after PMA treatment” value in [2] is on record as “unaffected”. For the same compound, in the data set with APOBEC3B promoter region, the “recruitment of RELB and p105/p52 to the APOBEC3B promoter region” value is “specifically and robustly recruited”. Further, the “changes in expression levels of other APOBEC family members” value in the data set with APOBEC family members is given as “no detectable changes”. Besides, the “PKCα mRNA levels after PMA treatment” value with PKCα (PRKCA) was “unchanged”. Also, in the data set on APOBEC3B [3] (PMA 25 ng/ml), the “time after treatment at which significant APOBEC3B mRNA induction was detected” value worked out at 30 min and the “time post-treatment by which maximal APOBEC3B mRNA levels were observed” value is on record as “three”. Further, in the data set with APOBEC3B [3] (dose response), the “PMA concentration at which APOBEC3B induction was near maximal” value was determined as 25 ng/mL and the “lowest PMA concentration that induced APOBEC3B” value came out at 1 ng/mL.
As to `C[C@@H]1C[C@@H]([C@H](O)CC2CC(=O)NC(=O)C2)C(=O)[C@@H](C)C1` [cyclohexamide], the “effect on kinetics of APOBEC3B upregulation by PMA” value in [1] (30-minute pretreatment with 10 μg/mL cyclohexamide) is listed as “not affected”.
Turning to `CN1CCN(c2nc(C3=C(c4c[nH]c5ccccc45)C(=O)NC3=O)c3ccccc3n2)CC1` [AEB071], the “potency relative to G66983 in suppressing APOBEC3B induction” value in [1] is given as “approximately 10 fold”. Further, in data set [1] (setting [5]), the “effect on PMA-induced APOBEC3B induction” value is recorded as “inhibited; also recorded: clear dose dependent suppression”. In data set [1] (pretreatment, then PMA), the “concentration causing complete suppression of APOBEC3B induction” value is 500 nM. For the same compound, the “effects on the cell cycle or cell viability” value in the data set on cancer cell lines is “no effects”. In the data set with APOBEC3B [4], the “cell lines in which APOBEC3B mRNA levels were reduced by more than half” value was 7/16.
With `N#CC(=C(/N)Sc1ccccc1N)/C(C#N)=C(\N)Sc1ccccc1N` [U0126], the “effect on PMA-induced APOBEC3B induction” value in data set [1] (setting [5]) was “no suppression”; in data set [1] (30-minute pretreatment, then PMA 25 ng/mL for six hours, listed as UO126), “not”.
In the case of `Cn1c2ccccc2c2c3c(c4c5ccccc5n(CCC#N)c4c21)CNC3=O` [Go6976], the “effect on PMA-induced APOBEC3B induction” value in data set [1] (setting [5]) is listed as “inhibited”.
